Measurements as given in patent publication US20240360082A1, “SUBSTITUTED PYRIDONE COMPOUNDS USEFUL TO TREAT ORTH[…]” (priority 2021, published 2024).

What follows are compounds tested against influenza A virus minigenome (PB2, PB1, PA, NP proteins) (UniProt P04665). Details: read-out: RNP_ Hubei B IC50.
Type: cell-based

Sequence of influenza A virus minigenome (PB2, PB1, PA, NP proteins) (P04665 whole entry): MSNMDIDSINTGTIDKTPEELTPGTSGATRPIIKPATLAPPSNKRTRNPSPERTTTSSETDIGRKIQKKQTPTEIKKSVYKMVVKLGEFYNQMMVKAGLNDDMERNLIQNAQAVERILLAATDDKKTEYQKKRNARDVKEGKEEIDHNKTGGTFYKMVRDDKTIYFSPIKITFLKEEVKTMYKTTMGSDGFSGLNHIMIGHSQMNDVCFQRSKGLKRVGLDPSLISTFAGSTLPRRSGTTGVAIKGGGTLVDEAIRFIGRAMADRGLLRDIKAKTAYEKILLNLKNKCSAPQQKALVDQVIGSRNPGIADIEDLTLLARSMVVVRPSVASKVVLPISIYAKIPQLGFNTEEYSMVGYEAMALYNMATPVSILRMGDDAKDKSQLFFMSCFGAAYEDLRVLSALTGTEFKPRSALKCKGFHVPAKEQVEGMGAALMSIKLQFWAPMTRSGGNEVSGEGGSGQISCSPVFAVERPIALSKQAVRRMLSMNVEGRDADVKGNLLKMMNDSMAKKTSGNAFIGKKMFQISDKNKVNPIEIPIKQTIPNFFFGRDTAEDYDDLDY

| Compound | IC50 |
| --- | --- |
| Cc1onc(-c2ccncc2)c1COc1ccc(-c2cc(C(N)=O)c(=O)[nH]c2C(F)(F)F)cc1 [Example 270, 5-(4-((5-methyl-3-(pyridin-4-yl)isoxazol-4-yl)methoxy)phenyl)-2-oxo-6-(trifluoromethyl)-1,2-dihydropyridine-3-carboxamide] | 25 to 50 µM |
| CCn1nccc1COc1ccc(-c2cc(C(N)=O)c(=O)[nH]c2C(F)(F)F)cc1 [Example 217, 5-(4-((1-ethyl-1H-pyrazol-5-yl)methoxy)phenyl)-2-oxo-6-(trifluoromethyl)-1,2-dihydropyridine-3-carboxamide] | 25 to 50 µM |
| COCCn1cc(COc2ccc(-c3cc(C(N)=O)c(=O)[nH]c3C(F)(F)F)cc2)cn1 [Example 218, 5-(4-((1-(2-methoxyethyl)-1H-pyrazol-4-yl)methoxy)phenyl)-2-oxo-6-(trifluoromethyl)-1,2-dihydropyridine-3-carboxamide] | 25 to 50 µM |
| C[C@H]1COC[C@H](COc2ccc(-c3cc(C(N)=O)c(=O)[nH]c3C(F)(F)F)cc2)O1 [Example 331, 5-(4-(((2R,6S)-6-methyl-1,4-dioxan-2-yl)methoxy)phenyl)-2-oxo-6-(trifluoromethyl)-1,2-dihydropyridine-3-carboxamide] | 10 to 25 µM |
| NC(=O)c1cc(-c2ccc(OCc3cc(C4CC4)on3)cc2)c(C(F)(F)F)[nH]c1=O [Example 268, 5-(4-((5-cyclopropylisoxazol-3-yl)methoxy)phenyl)-2-oxo-6-(trifluoromethyl)-1,2-dihydropyridine-3-carboxamide] | 25 to 50 µM |
| NC(=O)c1cc(-c2ccc(OCC3COC(C(F)F)CO3)cc2)c(C(F)(F)F)[nH]c1=O (single isomer, unassigned) [Example 347, 5-(4-((5-(difluoromethyl)-1,4-dioxan-2-yl)methoxy)phenyl)-2-oxo-6-(trifluoromethyl)-1,2-dihydropyridine-3-carboxamide] | 5 to 10 µM |
| C[C@@]12O[C@H](COc3ccc(-c4cc(C(N)=O)c(=O)[nH]c4C(F)(F)F)cc3)CO[C@@H]1C2(F)F [Example 395, 55-(4-(((1R,3S,6S)-7,7-difluoro-1-methyl-2,5-dioxabicyclo[4.1.0]heptan-3-yl)methoxy)phenyl)-2-oxo-6-(trifluoromethyl)-1,2-dihydropyridine-3-carboxamide] | 5 to 10 µM |
| C[C@]12O[C@@H](COc3ccc(-c4cc(C(N)=O)c(=O)[nH]c4C(F)(F)F)cc3)CO[C@H]1C2(F)F [Example 397, 5-(4-(((1S,3R,6R)-7,7-difluoro-1-methyl-2,5-dioxabicyclo[4.1.0]heptan-3-yl)methoxy)phenyl)-2-oxo-6-(trifluoromethyl)-1,2-dihydropyridine-3-carboxamide] | 5 to 10 µM |
| NC(=O)c1cc(-c2ccc(OCC3COCC(Cn4cccn4)O3)cc2)c(C(F)(F)F)[nH]c1=O (single isomer, unassigned) [Example 376, 5-(4-((6-((1H-pyrazol-1-yl)methyl)-1,4-dioxan-2-yl)methoxy)phenyl)-2-oxo-6-(trifluoromethyl)-1,2-dihydropyridine-3-carboxamide] | 5 to 10 µM |
| COC[C@@]1(CF)COC[C@@H](COc2ccc(-c3cc(C(N)=O)c(=O)[nH]c3C(F)(F)F)cc2)O1 [Example 417, 5-(4-(((2S,6S)-6-(fluoromethyl)-6-(methoxymethyl)-1,4-dioxan-2-yl)methoxy)phenyl)-2-oxo-6-(trifluoromethyl)-1,2-dihydropyridine-3-carboxamide] | 5 to 10 µM |
| CCOCC1COCC(COc2ccc(-c3cc(C(N)=O)c(=O)[nH]c3C(F)(F)F)cc2)O1 (single isomer, unassigned) [Example 361, 5-(4-((6-(ethoxymethyl)-1,4-dioxan-2-yl)methoxy)phenyl)-2-oxo-6-(trifluoromethyl)-1,2-dihydropyridine-3-carboxamide] | 5 to 10 µM |
| NC(=O)c1cc(-c2ccc(OC[C@H]3CO[C@H]4[C@@H](O3)C4(F)F)cc2)c(C(F)(F)F)[nH]c1=O [Example 391, 5-(4-((trans-7,7-difluoro-2,5-dioxabicyclo[4.1.0]heptan-3-yl)methoxy)phenyl)-2-oxo-6-(trifluoromethyl)-1,2-dihydropyridine-3-carboxamide] | 1 to 5 µM |
| COC[C@@H]1COC[C@H](COc2ccc(-c3cc(C(N)=O)c(=O)[nH]c3C(F)(F)F)cc2)O1 (single isomer, unassigned) [Example 400] | 5 to 10 µM |
| COC(C)(C)COCC1COCC(COc2ccc(-c3cc(C(N)=O)c(=O)[nH]c3C(F)(F)F)cc2)O1 (single isomer, unassigned) [Example 370, 5-(4-((6-((2-methoxy-2-methylpropoxy)methyl)-1,4-dioxan-2-yl)methoxy)phenyl)-2-oxo-6-(trifluoromethyl)-1,2-dihydropyridine-3-carboxamide] | 5 to 10 µM |
| CC(C)n1ncc2c1COCC2COc1ccc(-c2cc(C(N)=O)c(=O)[nH]c2C(F)(F)F)cc1 (single isomer, unassigned) [Example 294, 5-(4-((1-isopropyl-1,4,5,7-tetrahydropyrano[3,4-c]pyrazol-4-yl)methoxy)phenyl)-2-oxo-6-(trifluoromethyl)-1,2-dihydropyridine-3-carboxamide] | 5 to 10 µM |
| Cn1ncc2c1COCC2COc1ccc(-c2cc(C(N)=O)c(=O)[nH]c2C(F)(F)F)cc1 (single isomer, unassigned) [Example 289, 5-(4-((1-methyl-1,4,5,7-tetrahydropyrano[3,4-c]pyrazol-4-yl)methoxy)phenyl)-2-oxo-6-(trifluoromethyl)-1,2-dihydropyridine-3-carboxamide] | 5 to 10 µM |

Same assay, conditions: read-out: RNP_Hubei B

| Compound | IC50 |
| --- | --- |
| CC(Oc1ccc(-c2cc(C(N)=O)c(=O)[nH]c2C(F)(F)F)cc1)c1ccc2nonc2c1 (single isomer, unassigned) [Example 100, (R or S)-5-(4-(1-(benzo[c][1,2,5]oxadiazol-5-yl)ethoxy)phenyl)-2-oxo-6-(trifluoromethyl)-1,2-dihydropyridine-3-carboxamide] | 5 to 10 µM |
| CS(=O)(=O)NCc1ccc(-c2cc(C(N)=O)c(=O)[nH]c2C(F)(F)F)cc1 [Example 49, 5-(4-(methylsulfonamidomethyl)phenyl)-2-oxo-6-(trifluoromethyl)-1,2-dihydropyridine-3-carboxamide] | 25 to 50 µM |
| CN1CCCC(COc2ccc(-c3cc(C(N)=O)c(=O)[nH]c3C(F)(F)F)cc2)C1 (stereo not shown) [Example 92, 5-(4-((1-methylpiperidin-3-yl)methoxy)phenyl)-2-oxo-6-(trifluoromethyl)-1,2-dihydropyridine-3-carboxamide] | 25 to 50 µM |
| NC(=O)c1cc(-c2ccccc2)c(C(F)(F)F)[nH]c1=O [Example 16, 2-oxo-5-phenyl-6-(trifluoromethyl)-1,2-dihydropyridine-3-carboxamide] | 25 to 50 µM |
| NC(=O)c1cc(-c2ccc(OCC3CN(CC4CC4)CCO3)cc2)c(C(F)(F)F)[nH]c1=O (stereo not shown) [Example 194, 5-(4-((4-(cyclopropylmethyl)morpholin-2-yl)methoxy)phenyl)-2-oxo-6-(trifluoromethyl)-1,2-dihydropyridine-3-carboxamide] | 25 to 50 µM |
| NC(=O)c1cc(-c2ccc(CN3CCSCC3)cc2)c(C(F)(F)F)[nH]c1=O [Example 28, 2-oxo-5-(4-(thiomorpholinomethyl)phenyl)-6-(trifluoromethyl)-1,2-dihydropyridine-3-carboxamide] | 1 to 5 µM |
